The NIST ThermoML archive (doi:10.1016/j.jct.2012.07.022)

Tests used:
[1] = refractive index (Na D-line) (dimensionless); details: 101.33 kPa, Liquid, Standard Abbe refractometry
[2] = Liquid; for electrical conductivity: Alternating current cell with electrodes; for viscosity: Capillary tube (Ostwald / Ubbelohde) method; for speed of sound: Linear variable-path acoustic interferometer; for mass density: Vibrating tube method

CC(=O)[O-].CCCCn1cc[n+](C)c1 [1-butyl-3-methylimidazolium acetate]
[1]
Details | refractive index
283.15 K | 1.49925
288.15 K | 1.49781
293.15 K | 1.49634
298.15 K | 1.49488
303.15 K | 1.49342
308.15 K | 1.49197
313.15 K | 1.49053
318.15 K | 1.48909
323.15 K | 1.48765
328.15 K | 1.48619
333.15 K | 1.48477
338.15 K | 1.48332
343.15 K | 1.48189

[2], 101.33 kPa
Details | electrical conductivity [S/m] | mass density [kg/m3] | speed of sound [m/s] | viscosity [mPa·s]
283.15 K | 0.0131 | 1061.85 | 1700 | 1927
288.15 K | 0.0215 | 1058.77 | 1683 | 1165
293.15 K | 0.0331 | 1055.69 | 1666 | 736.6
298.15 K | 0.049 | 1052.63 | 1650 | 485.1
303.15 K | 0.0699 | 1049.61 | 1635 | 330.9
308.15 K | 0.0968 | 1046.6 | 1621 | 233
313.15 K | 0.131 | 1043.59 | 1608 | 168.7
318.15 K | 0.172 | 1040.59 | 1595 | 125.2
323.15 K | 0.221 | 1037.58 | 1582 | 95.05
328.15 K | – | 1034.58 | 1570 | 73.63
333.15 K | – | 1031.59 | 1558 | 58.09
338.15 K | – | 1028.61 | 1546 | 46.57
343.15 K | – | 1025.64 | 1534 | 37.91

CC(=O)[O-].CCn1cc[n+](C)c1 [1-ethyl-3-methylimidazolium acetate]
[1]
Details | refractive index
283.15 K | 1.50423
288.15 K | 1.50283
293.15 K | 1.50144
298.15 K | 1.50001
303.15 K | 1.49861
308.15 K | 1.49718
313.15 K | 1.49577
318.15 K | 1.49436
323.15 K | 1.49295
328.15 K | 1.49154
333.15 K | 1.49015
338.15 K | 1.48876
343.15 K | 1.48734

[2], 101.33 kPa
Details | electrical conductivity [S/m] | mass density [kg/m3] | speed of sound [m/s] | viscosity [mPa·s]
283.15 K | 0.114 | 1107.56 | 1778 | 388.6
288.15 K | 0.162 | 1104.47 | 1764 | 258.4
293.15 K | 0.222 | 1101.36 | 1750 | 179.1
298.15 K | 0.296 | 1098.26 | 1737 | 128.5
303.15 K | 0.382 | 1095.16 | 1725 | 95.23
308.15 K | 0.48 | 1092.07 | 1712 | 72.42
313.15 K | 0.594 | 1089 | 1700 | 56.38
318.15 K | 0.827 | 1085.94 | 1687 | 44.79
323.15 K | 0.986 | 1082.9 | 1675 | 36.23
328.15 K | – | 1079.87 | 1664 | 29.78
333.15 K | – | 1076.84 | 1652 | 24.82
338.15 K | – | 1073.83 | 1640 | 20.95
343.15 K | – | 1070.83 | 1628 | 17.88

O=c1cc[nH]c(=O)[nH]1 [2,4(1H,3H)-pyrimidinedione]
[2], 101 kPa
Details | electrical conductivity [S/m] | mass density [kg/m3] | viscosity [mPa·s]
298.15 K | 0.296 | 1097.6 | 128.5
303.15 K | 0.382 | 1094.5 | 95.23
308.15 K | 0.48 | 1091.4 | 72.42
313.15 K | 0.594 | 1088.4 | 56.38
318.15 K | 0.827 | 1085.3 | 44.79
323.15 K | 0.986 | 1082.3 | 36.23
328.15 K | – | 1079.3 | 29.78
333.15 K | – | 1076.2 | 24.82
338.15 K | – | 1073.3 | 20.95
343.15 K | – | 1070.3 | 17.88

Nc1[nH]cnc2ncnc1-2 [6-amino-1H-purine]
[2], 101 kPa
Details | electrical conductivity [S/m] | mass density [kg/m3] | viscosity [mPa·s]
298.15 K | 0.296 | 1097.6 | 128.5
303.15 K | 0.382 | 1094.5 | 95.23
308.15 K | 0.48 | 1091.4 | 72.42
313.15 K | 0.594 | 1088.4 | 56.38
318.15 K | 0.827 | 1085.3 | 44.79
323.15 K | 0.986 | 1082.3 | 36.23
328.15 K | – | 1079.3 | 29.78
333.15 K | – | 1076.2 | 24.82
338.15 K | – | 1073.3 | 20.95
343.15 K | – | 1070.3 | 17.88
